The values below come from US20250092039A1, “GLUTARIMIDE-CONTAINING PAN-KRAS-MUTANT DEGRADER COMPOUNDS AND USES THEREOF” (Tiger Biotherapeutics Inc., priority 2022, published 2025).

Test [1] has as its target KRAS-G12V/RAF1 (Homo sapiens (Human), UniProt P01116, G12V). The test is described as follows: KRAS/RAF1 binding inhibition assay (AlphaScreen). As to the method: Binding affinity against GTP-bound KRAS of the compounds disclosed herein was measured by monitoring the interaction of guanosine 5′-[β,γ-imido]triphosphate-bound (GppNHp-bound) KRAS with the RBD domain of RAF1 in the presence of the test compound. […] The test compounds in 2% DMSO (final concentration) at various concentrations were then added to the reaction mixture and incubated for 60 minutes at 4° C.
Raw ALphaScreen data were converted to a percentage of inhibition (relative to DMSO) using the following equations: • a) For a given test compound concentration X: […]
The IC50 values were determined by nonlinear regression of plots of [inhibitor] vs. percentage of inhibition with variable slope, analyzed using GraphPad Prism (Version 9).

Test [2] has as its target KRAS G12V (Homo sapiens (Human), UniProt P01116, G12V). Nature of the test: KRAS G12V degradation in SW620 cells (Western blot, DC50). It is filed as cell-based. Particulars: 24 hours. Here is the method: SW620 (KRAS G12V homozygous), AsPC1 (KRAS G12D homozygous), MIA PaCa2 (KRAS G12C homozygous), A549 (KRAS G12S homozygous) and MCF7 (KRAS WT) cells were obtained from American Type Culture Collection (ATCC). […] The following day, the test compound was administered to the cells by using 1000× compound stock solution prepared in DMSO at various concentrations. After administration of the compound, the cells were then incubated at 37° C. for 24 hours. Upon completion, the cells were washed with PBS and protein was collected in Laemmli sample buffer (1×; VWR International). Proteins in cell lysate were separated by SDS-PAGE and transferred to Odyssey nitrocellulose membranes (Licor) with iblot® dry blotting transfer system (ThermoFisher). Nonspecific binding was blocked by incubating membranes with Intercept Blocking Buffer (Licor) for 1 hour at room temperature with gentle shaking. […] After washing 3 times with TBS-T, the membranes were incubated with IRDye® 800CW goat anti-rabbit IgG (1:20,000, Licor) and IRDye® 680RD goat anti-mouse IgG (1:20,000, Licor) for 1 hour. After TBS-T washes, membranes were rinsed in TBS and Western blot images were acquired by Odyssey CLx (LI-COR Biosciences).
The signal intensity of target proteins was calculated using ImageStudio software. KRAS fluorescent intensity (FLU) from DMSO (vehicle) treatment was set as 100%. Relative KRAS expression level was determined by the following formula: […]
The percentage of KRAS expression was calculated using Microsoft Excel. The half-maximal degradation concentration (DCso) values were generated by GraphPad Prism (Version 9) using the dose-response equation of variable slope (four parameters).

Chain of KRAS G12V (P01116-2 other isoform, or with tags, fused parts or gaps G12V): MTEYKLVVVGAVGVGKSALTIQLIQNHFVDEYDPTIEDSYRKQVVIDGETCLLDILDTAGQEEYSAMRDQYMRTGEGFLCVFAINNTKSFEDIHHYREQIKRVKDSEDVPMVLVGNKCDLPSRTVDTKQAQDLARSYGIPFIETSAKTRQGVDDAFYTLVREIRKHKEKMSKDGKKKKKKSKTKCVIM
Chain of KRAS-G12V/RAF1 (P01116-2 other isoform, or with tags, fused parts or gaps G12V): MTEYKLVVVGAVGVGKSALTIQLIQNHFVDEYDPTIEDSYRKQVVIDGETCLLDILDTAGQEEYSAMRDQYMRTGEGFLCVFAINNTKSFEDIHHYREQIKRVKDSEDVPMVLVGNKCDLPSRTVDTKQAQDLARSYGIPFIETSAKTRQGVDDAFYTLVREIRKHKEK

`CCc1c(F)ccc2cc(O)cc(-c3ncc4c(N5C[C@@H]6C[C@H](C5)[C@H](O)C6)nc(OCC5(CN6CCC(CN7CCN(c8ccc9c(c8)CN([C@H]8CCC(=O)NC8=O)C9=O)CC7)CC6)CC5)nc4c3F)c12` (stereo in doubt) [Compound 96, (S)-3-(5-(4-((1-((1-(((7-(8-ethyl-7-fluoro-3-hydroxynaphthalen-1-yl)-8-fluoro-4-((1R,SR,6R)-6-hydroxy-3-azabicyclo[3.2.1]octan-3-yl)pyrido[4,3-d]pyrimidin-2-yl)oxy)methyl)cyclopropyl)methyl)piperidin-4-yl)methyl)piperazin-1-yl)-1-oxoisoindolin-2-yl)piperidine-2,6-dione]: in test [1], the IC50 is more than 200 nM. The compound also gave a DC50 in test [2] of less than 1 nM.
Consider `CCc1c(F)ccc2cc(O)cc(-c3ncc4c(N5CCC[C@@](C)(O)C5)nc(OCC5(CN6CCC(N7CCN(c8ccc9c(c8)CN([C@H]8CCC(=O)NC8=O)C9=O)CC7)CC6)CC5)nc4c3F)c12` [Compound 7, (S)-3-(5-(4-(1-((1-(((7-(8-ethyl-7-fluoro-3-hydroxynaphthalen-1-yl)-8-fluoro-4-((R)-3-hydroxy-3-methylpiperidin-1-yl)pyrido[4,3-d]pyrimidin-2-yl)oxy)methyl)cyclopropyl)methyl)piperidin-4-yl)piperazin-1-yl)-1-oxoisoindolin-2-yl)piperidine-2.6-dione], for which the DC50 in test [2] was less than 1 nM.
Same read-out and setting: in the case of `CCc1c(F)ccc2cc(O)cc(-c3ncc4c(N5CCCC6(CCO6)C5)nc(OCC5(CN6CCC(CN7CCN(c8ccc9c(c8)CN(C8CCC(=O)NC8=O)C9=O)CC7)CC6)CC5)nc4c3F)c12` [Compound 23, (3S)-3-(5-(4-((1-((1-(((7-(8-ethyl-7-fluoro-3-hydroxynaphthalen-1-yl)-8-fluoro-4-(1-oxa-6-azaspiro[3.5]nonan-6-yl)pyrido[4,3-d]pyrimidin-2-yl)oxy)methyl)cyclopropyl)methyl)piperidin-4-yl)methyl)piperazin-1-yl)-1-oxoisoindolin-2-yl)piperidine-2,6-dione] it was 1 to 10 nM.
In the case of `CCc1cccc2cc(O)cc(-c3ncc4c(N(C)C5C[C@H]5F)nc(OCC5(CN6CCC(CN7CCN(c8ccc9c(c8)CN([C@H]8CCC(=O)NC8=O)C9=O)CC7)CC6)CC5)nc4c3F)c12` (stereo partly drawn) [Compound 29, (S)-3-(5-(4-((1-((1-(((7-(8-ethyl-3-hydroxynaphthalen-1-yl)-8-fluoro-4-(((1R,2R)-2-fluorocyclopropyl)(methyl)amino)pyrido[4,3-d]pyrimidin-2-yl)oxy)methyl)cyclopropyl)methyl)piperidin-4-yl)methyl)piperazin-1-yl)-1-oxoisoindolin-2-yl)piperidine-2,6-dione], in test [2], the DC50 lay in the range of 1 to 10 nM.
Take `CCc1c(F)ccc2cc(O)cc(-c3ncc4c(N5CCC[C@]6(CCO6)C5)nc(OCC5(CN6CCC(CN7CCN(c8ccc9c(c8)CN(C8CCC(=O)NC8=O)C9=O)CC7)CC6)CC5)nc4c3F)c12` (stereo partly drawn) [Compound 44, (S)-3-(5-(4-((1-((1-(((7-(8-ethyl-7-fluoro-3-hydroxynaphthalen-1-yl)-8-fluoro-4-((S)-1-oxa-6-azaspiro[3.5]nonan-6-yl)pyrido[4,3-d]pyrimidin-2-yl)oxy)methyl)cyclopropyl)methyl)piperidin-4-yl)methyl)piperazin-1-yl)-1-oxoisoindolin-2-yl)piperidine-2,6-dione]: the DC50 in test [2] fell in the range of 1 to 10 nM.
Regarding `CCc1c(F)ccc2cc(O)cc(-c3ncc4c(N5CCC[C@@]6(CCO6)C5)nc(OCC5(CN6CCC(CN7CCN(c8ccc9c(c8)CN(C8CCC(=O)NC8=O)C9=O)CC7)CC6)CC5)nc4c3F)c12` (stereo partly drawn) [Compound 45, (S)-3-(5-(4-((1-((1-(((7-(8-ethyl-7-fluoro-3-hydroxynaphthalen-1-yl)-8-fluoro-4-((R)-1-oxa-6-azaspiro[3.5]nonan-6-yl)pyrido[4,3-d]pyrimidin-2-yl)oxy)methyl)cyclopropyl)methyl)piperidin-4-yl)methyl)piperazin-1-yl)-1-oxoisoindolin-2-yl)piperidine-2,6-dione], in test [2], the DC50 was more than 100 nM.
In test [1], `CCc1c(F)ccc2cc(O)cc(-c3ncc4c(N5CCCn6nc(C(=O)N(C)C)c(Cl)c6C5)nc(OCC5(CN6CCC7(CC6)CC(CN6CCN(c8ccc9c(c8)CN([C@H]8CCC(=O)NC8=O)C9=O)CC6)C7)CC5)nc4c3F)c12` [Compound 94, (S)-3-chloro-5-(2-((1-((2-((4-(2-(2,6-dioxopiperidin-3-yl)-1-oxoisoindolin-5-yl)piperazin-1-yl)methyl)-7-azaspiro[3.5]nonan-7-yl)methyl)cyclopropyl)methoxy)-7-(8-ethyl-7-fluoro-3-hydroxynaphthalen-1-yl)-8-fluoropyrido[4,3-d]pyrimidin-4-yl)-N,N-dimethyl-5,6,7,8-tetrahydro-4H-pyrazolo[1,5-a][1,4]diazepine-2-carboxamide] displayed an IC50 of more than 200 nM. Besides, in test [2], the DC50 was 1 to 10 nM.
As for `CCc1c(F)ccc2cc(O)cc(-c3ncc4c(N5CCCNC(=O)C5)nc(OCC5(CN6CCC(CN7CCN(c8ccc9c(c8)CN([C@H]8CCC(=O)NC8=O)C9=O)CC7)CC6)CC5)nc4c3F)c12` [Compound 95, (S)-3-(5-(4-((1-((1-(((7-(8-ethyl-7-fluoro-3-hydroxynaphthalen-1-yl)-8-fluoro-4-(3-oxo-1,4-diazepan-1-yl)pyrido[4,3-d]pyrimidin-2-yl)oxy)methyl)cyclopropyl)methyl)piperidin-4-yl)methyl)piperazin-1-yl)-1-oxoisoindolin-2-yl)piperidine-2,6-dione], the DC50 in test [2] is more than 100 nM.
Compound `CCc1c(F)ccc2cc(O)cc(-c3ncc4c(N5CCCC6(CC(O)C6)C5)nc(OCC5(CN6CCC7(CC6)CC(CN6CCN(c8ccc9c(c8)CN([C@H]8CCC(=O)NC8=O)C9=O)CC6)C7)CC5)nc4c3F)c12` [Compound 97, (S)-3-(5-(4-((7-((1-(((7-(8-ethyl-7-fluoro-3-hydroxynaphthalen-1-yl)-8-fluoro-4-(2-hydroxy-6-azaspiro[3.5]nonan-6-yl)pyrido[4,3-d]pyrimidin-2-yl)oxy)methyl)cyclopropyl)methyl)-7-azaspiro[3.5]nonan-2-yl)methyl)piperazin-1-yl)-1-oxoisoindolin-2-yl)piperidine-2,6-dione] gave a half-maximal inhibitory concentration (IC50) in test [1] of more than 200 nM. Moreover, the DC50 in test [2] is more than 100 nM.
As to `CCc1c(F)ccc2cc(O)cc(-c3ncc4c(N5CCOCC6(CCO6)C5)nc(OCC5(CN6CCC(CN7CCN(c8ccc9c(c8)CN([C@H]8CCC(=O)NC8=O)C9=O)CC7)CC6)CC5)nc4c3F)c12` (stereo partly drawn) [Compound 125, (3S)-3-(5-(4-((1-((1-(((7-(8-ethyl-7-fluoro-3-hydroxynaphthalen-1-yl)-8-fluoro-4-(1,6-dioxa-9-azaspiro[3.6]decan-9-yl)pyrido[4,3-d]pyrimidin-2-yl)oxy)methyl)cyclopropyl)methyl)piperidin-4-yl)methyl)piperazin-1-yl)-1-oxoisoindolin-2-yl)piperidine-2,6-dione], the IC50 in test [1] lay within 20 to 200 nM.
In the case of `CCc1cccc2cc(O)cc(-c3ncc4c(N5CCNC(=O)CC5)nc(OCC5(CN6CCC(CN7CCN(c8ccc9c(c8)CN([C@H]8CCC(=O)NC8=O)C9=O)CC7)CC6)CC5)nc4c3F)c12` [Compound 127, (S)-3-(5-(4-((1-((1-(((7-(8-ethyl-3-hydroxynaphthalen-1-yl)-8-fluoro-4-(5-oxo-1,4-diazepan-1-yl)pyrido[4,3-d]pyrimidin-2-yl)oxy)methyl)cyclopropyl)methyl)piperidin-4-yl)methyl)piperazin-1-yl)-1-oxoisoindolin-2-yl)piperidine-2,6-dione], the DC50 in test [2] was more than 100 nM.
`CCc1cccc2cc(O)cc(-c3ncc4c(N5CCC[C@@](C)(O)C5)nc(OCC5(CN6CC7(CCC(F)(CN8CCN(c9ccc%10c(c9)CN([C@H]9CCC(=O)NC9=O)C%10=O)CC8)CC7)C6)CC5)nc4c3F)c12` [Compound 179, (S)-3-(5-(4-((2-((1-(((7-(8-ethyl-3-hydroxynaphthalen-1-yl)-8-fluoro-4-((R)-3-hydroxy-3-methylpiperidin-1-yl)pyrido[4,3-d]pyrimidin-2-yl)oxy)methyl)cyclopropyl)methyl)-7-fluoro-2-azaspiro[3.5]nonan-7-yl)methyl)piperazin-1-yl)-1-oxoisoindolin-2-yl)piperidine-2,6-dione]: the 50% inhibitory concentration (IC50) in test [1] is 20 to 200 nM.
